Series [1] is described as follows: Stability of the compound in phosphate buffer at pH 7.4 at 100 uM by HPLC analysis. It is filed as physicochemical. The following applies: pH 7.4, 100 µM.
The target in series [2] is T1, Cathepsin G (Homo sapiens, UniProt P08311).
T1 sequence (P08311 whole entry): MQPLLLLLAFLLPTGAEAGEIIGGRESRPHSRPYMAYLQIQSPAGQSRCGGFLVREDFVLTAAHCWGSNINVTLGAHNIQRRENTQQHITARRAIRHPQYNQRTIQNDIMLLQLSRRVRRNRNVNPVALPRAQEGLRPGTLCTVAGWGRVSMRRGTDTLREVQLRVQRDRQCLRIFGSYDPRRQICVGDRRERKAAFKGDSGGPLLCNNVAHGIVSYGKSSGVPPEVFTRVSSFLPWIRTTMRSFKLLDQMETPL
In words: Inhibition of human cathepsin G using Suc-Ala-Ala-Pro-Phe-p-nitroanilide as substrate incubated for 30 mins prior to substrate addition measured for 30 mins by spectrophotometry.

For series [3], the target named is Urokinase-type plasminogen activator (Homo sapiens, UniProt P00749). In words: Inhibition of human urokinase using Z-Gly-Gly-Arg-AMC.HCl as substrate measured for 30 mins by spectrophotometry.
Series [4] deals with Prothrombin (Homo sapiens, UniProt P00734). In words: Inhibition of human thrombin using Z-Gly-Gly-Arg-AMC.HCl as substrate measured for 30 mins by spectrophotometry.
The target in series [5] is Kallikrein-1 (Homo sapiens, UniProt P06870). In words: Inhibition of human kallikrein using H-Pro-Phe-Arg-AMC acetate salt as substrate measured for 30 mins by spectrophotometry.
Sequence of Kallikrein-1 (P06870 whole entry): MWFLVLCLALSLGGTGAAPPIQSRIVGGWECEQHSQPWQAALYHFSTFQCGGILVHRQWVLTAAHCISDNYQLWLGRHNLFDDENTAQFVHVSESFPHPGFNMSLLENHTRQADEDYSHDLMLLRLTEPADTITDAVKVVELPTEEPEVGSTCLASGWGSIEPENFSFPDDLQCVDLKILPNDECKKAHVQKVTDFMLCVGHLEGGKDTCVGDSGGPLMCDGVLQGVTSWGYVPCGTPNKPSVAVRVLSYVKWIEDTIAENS
Series [6] addresses T2, Neutrophil elastase (Homo sapiens, UniProt P08246).
T2 sequence (P08246 whole entry): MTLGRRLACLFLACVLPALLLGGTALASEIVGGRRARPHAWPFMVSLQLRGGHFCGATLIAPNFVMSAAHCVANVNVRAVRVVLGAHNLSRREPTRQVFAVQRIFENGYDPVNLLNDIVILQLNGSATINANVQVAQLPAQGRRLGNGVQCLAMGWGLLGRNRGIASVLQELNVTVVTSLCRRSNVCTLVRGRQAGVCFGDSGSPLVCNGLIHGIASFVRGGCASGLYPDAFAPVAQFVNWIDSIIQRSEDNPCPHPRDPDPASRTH
As to the kind of experiment: Inhibition of human neutrophil elastase using MeO-Suc-Ala-Ala-Pro-Val-AMC as substrate incubated for 30 mins prior to substrate addition measured for 30 mins by fluorescence assay.

Series [7] deals with HEK-293T. In words: Cytotoxicity against human HEK293T cells after 24 hrs by MTT assay. It is filed as cell-based. On the technique in general: Formazan colour is commonly taken as a measure of viable cells.
Series [8] in a line: Inhibition of human chymotrypsin using Suc-Ala-Ala-Pro-Phe-7-amino-4-methylcoumarin as substrate measured for 30 mins by spectrophotometry.
Series [9] is described as follows: Half life in human plasma by HPLC analysis. Type of series: ADME, cell-free.
The target of series [10] is Trypsin (Homo sapiens, UniProt P07477+P07478+P35030). As to the kind of experiment: Inhibition of human trypsin using Z-Gly-Gly-Arg-AMC.HCl as substrate measured for 30 mins by spectrophotometry. It is filed as protein assay.
For series [11], the target named is T3, Myeloblastin (Homo sapiens, UniProt P24158).
T3 sequence (P24158 whole entry): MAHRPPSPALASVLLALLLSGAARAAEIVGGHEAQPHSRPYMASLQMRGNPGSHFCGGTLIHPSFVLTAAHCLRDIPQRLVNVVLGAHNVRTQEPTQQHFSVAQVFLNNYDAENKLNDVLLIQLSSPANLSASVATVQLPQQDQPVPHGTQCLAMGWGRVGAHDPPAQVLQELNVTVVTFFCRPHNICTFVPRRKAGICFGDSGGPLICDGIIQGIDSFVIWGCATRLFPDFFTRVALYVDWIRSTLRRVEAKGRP
As to the kind of experiment: Inhibition of human proteinase 3 using N-MeOSuc-Ala-Ala-Pro-Val-p-nitroanilide as substrate measured for 30 mins by spectrophotometry.

The target in series [12] is Pancreatic elastase (Sus scrofa, UniProt P08419+P00772). As to the kind of experiment: Inhibition of pig pancreatic elastase using MeO-Suc-Ala-Ala-Pro-Val-AMC as substrate incubated for 30 mins prior to substrate addition measured for 30 mins by fluorescence assay. It is filed as protein assay.
Series [13] can be described thus: Half life in Sprague-Dawley rat liver microsomes by HPLC analysis. Type of series: ADME. (Microsomes from liver hold many membrane-bound enzymes, among them those of drug oxidation.)
The test system of series [14] is NIH3T3. In words: cells. The following applies: Mus musculus, NIH3T3, 24 h.
Description: Cytotoxicity against mouse NIH/3T3 cells after 24 hrs by MTT assay
Series [15] concerns Plasma. In words: Metabolic stability in human plasma by HPLC analysis. Type of series: ADME, cell-free.

With `O=C(Oc1coc(CSc2nnc(NC(=O)C3CC3)s2)cc1=O)c1cccc(F)c1`, the Stability result in series [1] was “Stable”.

As for `CC(C)(C)C(=O)Oc1cn(-c2ccccc2)c(CSc2nc3cc(C(=O)O)ccc3o2)cc1=O`, the IC50 is 19 µM in [2], over 50 µM in series [3], 8.4 µM in series [4] and over 50 µM in [5].

In [6], `O=C(Oc1cn(-c2ccccc2)c(CSc2nc3ccccc3s2)cc1=O)c1ccccc1` yielded an IC50 of 0.28 µM.

In series [6], `CC(C)(C)C(=O)Oc1cn(-c2ccccc2)c(CSc2nc3ccccc3s2)cc1=O` had an IC50 of 0.96 µM.

With `CC(C)(C)C(=O)Oc1coc(CSc2nc3cc(C(=O)O)ccc3o2)cc1=O`, the Stability result in [1] is reported as “Stable”. Moreover, the IC50 in [2] was over 100 µM; in series [3] it was over 50 µM; in series [4], over 50 µM; in series [5], over 50 µM.

`CC(C)(C)C(=O)Oc1coc(CSc2nc3ccccc3s2)cc1=O`: the Stability result in series [1] is given as “Stable”. For the same compound, the IC50 in series [2] was over 100 µM; in series [7] it was over 100 µM; in [8] it was over 50 µM; in series [3], over 50 µM; in [10], over 50 µM; in series [4] it was over 50 µM. For the same compound, the IC50 is 0.11 µM in series [6]; 5.9 µM in [11]; over 100 µM in series [12]; over 50 µM in series [5]; over 100 µM in series [14]. For the same compound, the half-life was 10.8 min in series [9] and under 1 min in series [13].

Regarding `CC(C)(C)C(=O)Oc1ccc(S(=O)(=O)Nc2ccccc2C(=O)NCC(=O)O)cc1`, the Stability entry in series [1] and in series [15] was “Stable” each time. Also, the IC50 in series [2] is over 100 µM; in series [7], over 100 µM; in series [8] it was over 2 µM; in series [3] it was over 2 µM; in series [10], over 2 µM; in [4], over 2 µM. The IC50 was over 100 µM in series [11], over 50 µM in [12], over 2 µM in [5] and over 100 µM in [14]. Also, the half-life in series [13] is 19.9 min.

By IC50 is commonly meant the concentration at which inhibition is half-maximal. The half-life is how long it takes for the measured level to halve. Read a high half-life as slow decline.

These data come from ChEMBL document CHEMBL3091365, “Optimization of O3-acyl kojic acid derivatives as potent and selective human neutrophil elastase inhibitors” (J Med Chem, 2013).
